{"source": "patent US20240166624A1", "about": "“PPARG INVERSE AGONISTS AND USES THEREOF” (Flare Therapeutics Inc., priority 2021, published 2024)", "key": {"[1]": {"molecular_target": "T1, PPARG/RXRA LBD heterodimer (Homo sapiens, UniProt P37231)", "T1 construct": "His-TEV-Q203-Y477; Uniprot ID P37231-2; made in house; host or cells: E. coli", "T1 sequence (P37231 203-477 isoform P37231-2)": "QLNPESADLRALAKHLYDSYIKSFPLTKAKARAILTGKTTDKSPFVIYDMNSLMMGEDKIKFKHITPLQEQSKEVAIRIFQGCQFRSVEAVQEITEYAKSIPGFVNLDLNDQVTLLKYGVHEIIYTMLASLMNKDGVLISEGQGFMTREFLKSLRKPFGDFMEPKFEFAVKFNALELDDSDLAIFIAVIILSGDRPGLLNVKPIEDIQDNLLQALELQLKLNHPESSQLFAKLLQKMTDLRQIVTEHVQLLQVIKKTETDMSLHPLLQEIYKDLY", "T1 sequence (P19793 228-462 partner limits assumed)": "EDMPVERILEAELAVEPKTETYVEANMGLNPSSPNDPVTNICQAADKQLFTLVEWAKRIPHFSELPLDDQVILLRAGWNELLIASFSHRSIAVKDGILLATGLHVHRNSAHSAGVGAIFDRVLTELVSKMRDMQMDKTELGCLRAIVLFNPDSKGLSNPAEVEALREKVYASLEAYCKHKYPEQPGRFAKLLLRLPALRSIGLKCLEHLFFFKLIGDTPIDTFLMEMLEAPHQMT", "assay": "PPARγ-MED1 blockade assay (TR-FRET, biotinylated MED1 LxxLL peptide)", "assay_type": "biochemical", "settings": "WT PPARG LBD/WT RXRA LBD, 80 nM Rosiglitazone, 3 hours", "procedure,_shortened": "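TR-FRET measuring biotinylated MED1 LxxLL peptide association with 2 nM each His-PPARG LBD (Q203-Y477) and Flag-RXRA LBD (E228-T462), E. coli expressed. Read after 3 h incubation; ratios normalized to DMSO (0%) and GW9662 minimum (100%) for IC50 and maximal MED1 repulsion.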"}, "[2]": {"system": "FABP4, a PPARG target gene, in 5637 (PPARG amplified) cells", "assay": "Bladder cancer pharmacodynamic assay, 5637 cell assay (qPCR of FABP4)", "assay_type": "cell-based", "settings": "5637 cells, 24 hours, 100 nM compound, relative to DMSO control", "description": "Bladder Cancer Pharmacodynamic Assay\n5637 (PPARG amplified) and HT1197 (RXRA S427F mutation) cells were used for assessment of modulation of PPARG target genes using quantitative PCR. Cells were treated for 24 hours with PPARG inverse agonists prior to analysis of FABP4 (IDT, Cat: Hs.PT 58.20106818) and ANGPTL4 (IDT, Cat: Hs.PT 58.25480012) expression, with expression of the housekeeping gene TBP (IDT, Cat: Hs.PT 58v.39858774) used to normalize expression across samples. Quantitative PCR was performed using an ABI QuantStudio 7 Flex Reaction system. Data were analyzed and reported relative to DMSO control using the comparative Ct method (ΔΔCt)."}, "[3]": {"system": "ANGPTL4, a PPARG target gene, in HT1197 (RXRA S427F mutation) cells", "assay": "Bladder cancer pharmacodynamic assay, HT1197 cell assay (qPCR of ANGPTL4)", "assay_type": "cell-based", "settings": "Homo sapiens, 24 hours; for inhibition at 0.1 µM: 100 nM compound, relative to DMSO control", "procedure,_shortened": "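5637 (PPARG amplified) and HT1197 (RXRA S427F) cells treated 24 h with PPARG inverse agonists. FABP4 and ANGPTL4 expression measured by qPCR, normalised to TBP, and reported relative to DMSO control by ΔΔCt.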"}, "[4]": {"molecular_target": "T2, PPARG/RXRA LBD heterodimer (Homo sapiens, UniProt P37231)", "T2 construct": "His-TEV-Q203-Y477; Uniprot ID P37231-2; made in house; host or cells: E. coli", "assay": "PPARγ-NCOR1 recruitment assay (TR-FRET, biotinylated NCOR1 ID2 peptide)", "assay_type": "biochemical", "settings": "80 nM Rosiglitazone, 3 hours, read-out: PPARG-NCOR recruitment assay EC50", "procedure,_shortened": "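2 nM each of E. coli-expressed PPARG LBD (Q203-Y477) and RXRA LBD (WT or S427F, E228-T462) with biotinylated NCOR1 ID2 peptide, incubated 3 h; TR-FRET read at Ex/Em 615/665. Ratios normalized to DMSO (0%) and T0070907 maximum (100%) for EC50 and maximal recruitment.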", "T2 sequence (O75376 2251-2273 partner, one chain of several)": "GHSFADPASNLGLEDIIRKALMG"}}}
{"smiles": "N#Cc1ccc(Cl)c(-c2cc(=O)c3c(F)cc(F)cc3[nH]2)c1", "note": "[Example 1, 4-chloro-3-(5,7-difluoro-4-oxo-1,4-dihydroquinolin-2-yl)benzonitrile]", "values": [{"measurement": "EC50", "setting": "[1]", "value": "100 to 1000", "unit": "nM"}, {"measurement": "inhibition at 0.1 µM", "setting": "[2]", "value": 95, "unit": "%"}, {"measurement": "inhibition at 0.1 µM", "setting": "[3]", "value": 88, "unit": "%"}, {"measurement": "EC50", "setting": "[3]; ANGPTL4 expression", "value": 5, "unit": "nM"}, {"measurement": "EC50", "setting": "[4]", "value": "100 to 1000", "unit": "nM"}]}
{"smiles": "N#Cc1ccc(Cl)c(-c2cc(=O)c3cc(Cl)c(Cl)cc3[nH]2)c1", "note": "[Example 2, 4-chloro-3-(6,7-dichloro-4-oxo-1,4-dihydroquinolin-2-yl)benzonitrile]", "values": [{"measurement": "EC50", "setting": "[1]", "value": "100 to 1000", "unit": "nM"}, {"measurement": "inhibition at 0.1 µM", "setting": "[2]", "value": 93, "unit": "%"}, {"measurement": "inhibition at 0.1 µM", "setting": "[3]", "value": 83, "unit": "%"}, {"measurement": "EC50", "setting": "[4]", "value": "100 to 1000", "unit": "nM"}]}
{"smiles": "N#Cc1ccc(Br)c(-c2cc(=O)c3c(F)cc(F)cc3[nH]2)c1", "note": "[Example 4, 4-bromo-3-(5,7-difluoro-4-oxo-1,4-dihydroquinolin-2-yl)benzonitrile]", "values": [{"measurement": "EC50", "setting": "[1]", "value": "10 to 100", "unit": "nM"}, {"measurement": "inhibition at 0.1 µM", "setting": "[2]", "value": 94, "unit": "%"}, {"measurement": "inhibition at 0.1 µM", "setting": "[3]", "value": 90, "unit": "%"}, {"measurement": "EC50", "setting": "[4]", "value": "10 to 100", "unit": "nM"}]}
{"smiles": "N#Cc1ccc(Cl)c(-c2cc(=O)c3cc(F)c(F)cc3[nH]2)c1", "note": "[Example 5, 4-chloro-3-(6,7-difluoro-4-oxo-1H-quinolin-2-yl)benzonitrile]", "values": [{"measurement": "EC50", "setting": "[1]", "value": "1000 to 10000", "unit": "nM"}, {"measurement": "inhibition at 0.1 µM", "setting": "[2]", "value": 90, "unit": "%"}, {"measurement": "inhibition at 0.1 µM", "setting": "[3]", "value": 86, "unit": "%"}, {"measurement": "EC50", "setting": "[4]", "value": "1000 to 10000", "unit": "nM"}]}
{"smiles": "N#Cc1ccc(Br)c(-c2cc(=O)c3cc(F)c(F)cc3[nH]2)c1", "note": "[Example 6, 4-bromo-3-(6,7-difluoro-4-oxo-1,4-dihydroquinolin-2-yl)benzonitrile]", "values": [{"measurement": "EC50", "setting": "[1]", "value": "100 to 1000", "unit": "nM"}, {"measurement": "inhibition at 0.1 µM", "setting": "[2]", "value": 93, "unit": "%"}, {"measurement": "EC50", "setting": "[4]", "value": "100 to 1000", "unit": "nM"}]}
{"smiles": "N#Cc1ccc(Cl)c(-c2cc(=O)c3c(F)c(-c4ccc(C(F)(F)F)cc4)c(F)cc3[nH]2)c1", "note": "[Example 11, 4-chloro-3-(5,7-difluoro-4-oxo-6-(4-(trifluoromethyl)phenyl)-1,4-dihydroquinolin-2-yl)benzonitrile]", "values": [{"measurement": "EC50", "setting": "[1]", "value": "100 to 1000", "unit": "nM"}, {"measurement": "inhibition at 0.1 µM", "setting": "[2]", "value": 94, "unit": "%"}, {"measurement": "inhibition at 0.1 µM", "setting": "[3]", "value": 88, "unit": "%"}, {"measurement": "EC50", "setting": "[4]", "value": "10 to 100", "unit": "nM"}]}
